The values that follow come from paper PMC10021017 (Journal of the American Chemical Society, 2023).

Assay [1] concerns the target T1, HydB (HydABCTk, electron-bifurcating [FeFe]-hydrogenase) (Thermoanaerobacter kivui, UniProt A0A097ATG4).
T1 sequence (A0A097ATG4 1-630): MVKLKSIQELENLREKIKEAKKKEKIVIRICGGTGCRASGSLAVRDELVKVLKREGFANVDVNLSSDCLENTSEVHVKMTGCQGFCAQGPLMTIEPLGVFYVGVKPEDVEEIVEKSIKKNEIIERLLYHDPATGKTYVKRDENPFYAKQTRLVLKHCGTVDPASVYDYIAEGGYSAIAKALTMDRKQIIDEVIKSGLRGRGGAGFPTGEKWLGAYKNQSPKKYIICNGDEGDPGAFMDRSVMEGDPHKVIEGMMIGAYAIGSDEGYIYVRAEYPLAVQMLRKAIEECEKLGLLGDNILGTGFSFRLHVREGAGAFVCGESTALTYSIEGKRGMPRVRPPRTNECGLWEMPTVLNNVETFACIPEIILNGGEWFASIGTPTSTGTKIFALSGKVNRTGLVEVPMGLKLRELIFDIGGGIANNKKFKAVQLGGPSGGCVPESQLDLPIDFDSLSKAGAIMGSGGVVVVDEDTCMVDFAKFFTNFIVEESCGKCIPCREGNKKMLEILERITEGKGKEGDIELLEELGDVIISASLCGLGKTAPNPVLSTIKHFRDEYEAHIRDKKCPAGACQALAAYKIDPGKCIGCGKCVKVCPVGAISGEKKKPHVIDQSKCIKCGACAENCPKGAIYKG
T1 sequence (A0A097ATG3 1-571 partner): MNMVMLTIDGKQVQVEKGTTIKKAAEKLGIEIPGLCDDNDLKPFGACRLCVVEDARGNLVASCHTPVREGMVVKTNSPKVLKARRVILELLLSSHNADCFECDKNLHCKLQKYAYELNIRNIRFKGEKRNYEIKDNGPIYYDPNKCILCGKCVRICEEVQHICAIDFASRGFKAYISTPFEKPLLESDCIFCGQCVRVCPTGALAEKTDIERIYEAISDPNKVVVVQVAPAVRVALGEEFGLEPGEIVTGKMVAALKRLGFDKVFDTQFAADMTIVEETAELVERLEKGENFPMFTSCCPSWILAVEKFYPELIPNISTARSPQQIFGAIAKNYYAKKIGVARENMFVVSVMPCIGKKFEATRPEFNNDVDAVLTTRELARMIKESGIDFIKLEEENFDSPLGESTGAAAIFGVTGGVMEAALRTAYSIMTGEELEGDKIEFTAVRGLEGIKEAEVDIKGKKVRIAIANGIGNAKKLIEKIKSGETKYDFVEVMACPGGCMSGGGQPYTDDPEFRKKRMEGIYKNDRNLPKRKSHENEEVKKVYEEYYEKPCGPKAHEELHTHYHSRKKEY
T1 sequence (A0A097ATI0 1-170 partner): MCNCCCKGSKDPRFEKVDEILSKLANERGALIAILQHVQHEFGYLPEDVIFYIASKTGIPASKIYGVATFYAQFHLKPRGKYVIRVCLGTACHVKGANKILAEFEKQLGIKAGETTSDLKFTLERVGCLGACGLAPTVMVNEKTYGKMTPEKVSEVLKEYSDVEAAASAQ
Nature of the assay: cryoEM. The assay is classed as binding.

Assay [2] has as its target HydB (ΔB2-HydABCTk) (Thermoanaerobacter kivui, UniProt A0A097ATG4, C82G/C86G).
Assay [3] has as its target HydABC heterotrimer (protomer) of the electron-bifurcating [FeFe]-hydrogenase from Thermoanaerobacter kivui (Thermoanaerobacter kivui). The experiment in a line: cryo-EM structure.
The target in assay [4] is T2, HydB subunit of the electron-bifurcating [FeFe]-hydrogenase HydABC from Thermoanaerobacter kivui (Thermoanaerobacter kivui, UniProt A0A097ATG4 1-630).
T2 sequence: T1 sequence (A0A097ATG4 1-630)
Nature of the assay: cryo-EM structure.

Regarding `Cc1cc2nc3c(=O)[nH]c(=O)nc-3n(C[C@H](O)[C@H](O)[C@H](O)COP(=O)(O)O)c2cc1C` [FMN], the “cryoEM (reduced 3.12 A; oxidized 3.49 A, 8BEW); TLC of bound flavin” value in assay [1] is recorded as “modified Rossmann fold with four (instead of six) β-sheets that noncovalently bind the FMN cofactor in a solvent-accessible cavity”.
Usually Kd stands for the equilibrium constant for the complex coming apart. Low readings indicate tighter binding, high ones weaker binding. `NC(=O)c1ccc[n+]([C@@H]2O[C@H](COP(=O)(O)OP(=O)(O)OC[C@H]3O[C@@H](n4cnc5c(N)ncnc54)[C@H](OP(=O)(O)O)[C@@H]3O)[C@@H](O)[C@H]2O)c1` [NADP^+] registered a Kd in assay [2] of 65 to 71 µM.
The term stoichiometry N denotes a count of units in the complex or per binding partner. In turn, “HydABC heterotrimer (protomer) of the electron-bifurcating [FeFe]-hydrogenase from Thermoanaerobacter kivui (from UniProt A0A097ATG4 1-630; A0A097ATI0 1-170) (complex)” had a stoichiometry N in assay [3] of 2.

B1: HydC subunit of the electron-bifurcating [FeFe]-hydrogenase HydABC from Thermoanaerobacter kivui (natural protein)
chain: T1 sequence (A0A097ATI0 1-170 partner)
For B1, in assay [4], the binding result was “binds”.
